Each block holds one compound with its values, some of them ahead of it.
Test: solvent given as SMILES

SMILES: CCCCCCN1C(=O)c2cccc3cc(/N=C\c4nc5ccccc5s4)cc(c23)C1=O
emission maximum (in ClC(Cl)Cl): 495 nm

SMILES: CN(C)c1ccc(C2=CC(c3ccccc3)=[N+]3C2=Nc2c(-c4ccc(N(C)C)cc4)cc(-c4ccccc4)n2[B-]3(F)F)cc1
emission maximum (in Cc1ccccc1): 822 nm

SMILES: CCCC1(CCC)c2cc(-c3ccc4c(c3)C(CCC)(CCC)c3cc(-c5ccc6c(c5)C(CCC)(CCC)c5cc(C(C)(C)CC)ccc5-6)ccc3-4)ccc2-c2ccc(-c3ccc4c(c3)C(CCC)(CCC)c3cc(C(C)(C)CC)ccc3-4)cc21
emission maximum (in C1CCCCC1): 407 nm

SMILES: CC(C)(C)c1ccc(-c2c3c(c(-c4ccc(C(C)(C)C)cc4)c4cc5ccccc5cc24)Cc2c(c(-c4ccc(C(C)(C)C)cc4)c4cc5ccccc5cc4c2-c2ccc(C(C)(C)C)cc2)C3)cc1
emission maximum (in ClCCl): 409 nm

SMILES: CC(C)c1cccc(C(C)C)c1N1C(=O)c2ccc3c4c(-c5ccc(C(=O)O)cc5)c5ccc6c7c(cc8c9cc(C(=O)O)ccc9c(c9ccc(c2c39)C1=O)c4c8c57)C(=O)N(c1c(C(C)C)cccc1C(C)C)C6=O
emission maximum (in ClCCl): 626 nm

SMILES: CN(C)c1ccc2cc(C3=[O+][B-](F)(F)OC(c4ccccc4)=C3)ccc2c1
emission maximum (in C1CCOC1): 643 nm
emission maximum (in CC#N): 406 nm
emission maximum (in CC(C)=O): 682 nm
emission maximum (in CS(C)=O): 422 nm
emission maximum (in Cc1ccccc1): 573 nm
emission maximum (in ClC(Cl)Cl): 613 nm
emission maximum (in ClCCl): 650 nm

SMILES: CCC1=C(C)C(=O)n2c1cc1c(C)c(CC(=O)O)c(C)n1c2=O
emission maximum (in CO): 535 nm
emission maximum (in CS(C)=O): 505 nm
emission maximum (in ClC(Cl)Cl): 485 nm
emission maximum (in c1ccccc1): 465 nm

SMILES: COc1ccc(C2=C(Br)C(c3ccccc3)=[N+]3C2=Nc2c(-c4ccc(OC)cc4)c(Br)c(-c4ccccc4)n2[B-]3(F)F)cc1
emission maximum (in Cc1ccccc1): 691 nm

SMILES: N#CC(C#N)=Cc1ccc2c(c1)c1ccccc1n2-c1cc2ccccc2c2ccccc12
emission maximum (in CC#N): 503 nm
emission maximum (in CCCCC): 451 nm
emission maximum (in Cc1ccccc1): 445 nm
emission maximum (in ClCCl): 480 nm

SMILES: CCCCN(CCCC)c1ccc2c(c1)C#CC#Cc1cc(C(F)(F)F)ccc1C#Cc1cc(c3cc1C#Cc1ccc(C(F)(F)F)cc1C#CC#Cc1cc(N(CCCC)CCCC)ccc1C#C3)C#C2
emission maximum (in ClCCl): 550 nm
emission maximum (in c1ccccc1): 503 nm

SMILES: C(#Cc1cccs1)C(C#Cc1cccs1)=Cc1ccc(C=C(C#Cc2cccs2)C#Cc2cccs2)cc1
emission maximum (in ClC(Cl)Cl): 498 nm

SMILES: CCOC(=O)c1cc(C(=O)OCC)c2cc(N)ccc2n1
emission maximum (in CCO): 537 nm

SMILES: CCN(CC)c1ccc2c(-c3ccccc3C(=O)O)c3c([o+]c2c1)/C(=C/c1ccc(N2CCCC2)s1)CCC3
emission maximum (in ClCCl): 770 nm

SMILES: CCOC(=O)c1cc(C(=O)OCC)c2cc(OC)ccc2n1
emission maximum (in CCO): 441 nm

SMILES: CC(C)CCCC(C)CCN1C(=O)c2ccc3c(-c4ccccc4)c4c5ccc6c7c(ccc(c(-c8ccccc8)c4c4ccc(c2c34)C1=O)c75)C(=O)N(CCC(C)CCCC(C)C)C6=O (stereo not drawn)
emission maximum (in ClCCl): 704 nm

SMILES: COC(=O)c1ccc(/C=C/C(F)(F)F)c(N)c1
emission maximum (in C1CCOC1): 447 nm

SMILES: N#CC1=c2cc3c4c(c2Oc2c1cc1c5c2CCCN5CCC1)CCC[N+]=4CCC3
emission maximum (in CCO): 700 nm

SMILES: CN(C)c1ccc(/C=C/c2ccc(-c3nnc(-c4ccc(-c5cc6ccccc6s5)cc4)o3)cc2)cc1
emission maximum (in CC#N): 397 nm
emission maximum (in CC(C)=O): 395 nm
emission maximum (in CCCCCCCC): 387 nm
emission maximum (in CCCCCCCCCCO): 394 nm
emission maximum (in CCCCCCCCO): 398 nm
emission maximum (in CCCCCO): 399 nm
emission maximum (in CCCO): 399 nm
emission maximum (in CN(C)C=O): 401 nm
emission maximum (in CO): 404 nm
emission maximum (in CS(C)=O): 408 nm

SMILES: CCOC(=O)c1c2c3c(ccc([N+](=O)[O-])c3c3cc4c(cc13)[Si](C)(C)O[Si]4(C)C)N(C)C2=O
emission maximum (in CC#N): 413 nm

SMILES: CC(C)(C)c1ccc2c(c1)-c1c3c(c4c5c1-c1cc(C(C)(C)C)ccc1OB5Oc1ccc(C(C)(C)C)cc1-4)-c1cc(C(C)(C)C)ccc1OB3O2
emission maximum (in ClCCl): 436 nm

SMILES: CN(C)c1ccc(C2=Nc3scc(-c4ccc([N+](=O)[O-])cc4)[n+]3[B-](F)(F)O2)cc1
emission maximum (in C1CCOC1): 454 nm
emission maximum (in CC#N): 453 nm
emission maximum (in Cc1ccccc1): 447 nm
emission maximum (in ClCCl): 454 nm

SMILES: COCCC1(CCOC)c2cc(-c3ccc(OC)cc3)ccc2-c2ccc(-c3ccc4c(c3)C(CCOC)(CCOC)c3cc(-c5ccc(OC)cc5)ccc3-4)cc21
emission maximum (in CN(C)C=O): 395 nm

SMILES: CN(C)c1ccccc1
emission maximum (in C1CCCCC1): 339.9 nm

SMILES: N#C/C=C/c1ccc2ccc3cccc4ccc1c2c34
emission maximum (in C1CCOC1): 425 nm
emission maximum (in C1COCCO1): 421.5 nm
emission maximum (in C=CC#N): 439.5 nm
emission maximum (in CC#N): 440.5 nm
emission maximum (in CC(C)=O): 433 nm
emission maximum (in CCCCCC): 409.5 nm
emission maximum (in CCOC(C)=O): 423 nm
emission maximum (in CO): 443 nm
emission maximum (in Cc1ccccc1): 423 nm
emission maximum (in ClCCl): 434 nm

Now from value to compound:

emission maximum (in C1CCCCC1): 630 nm
emission maximum (in CCOC(C)=O): 665 nm
SMILES: CC1=[N+]2C(=C(Oc3ccccc3)c3ccc(C)n3[B-]2(F)F)C=C1c1cc2n(c1)[B-](F)(F)[N+]1=CC=CC1=C2c1c(C)cc(C)cc1C

emission maximum (in C1COCCO1): 464 nm
SMILES: N#Cc1ccc(/C=C2\N=C(c3ccccc3)NC2=O)cc1

emission maximum (in CC#N): 398 nm
emission maximum (in CCCCOCCCC): 397 nm
emission maximum (in CO): 399 nm
SMILES: c1ccc(Nc2nc(Nc3ccccc3)nc(Nc3cc4ccc5cccc6ccc(c3)c4c56)n2)cc1

emission maximum (in C1CCCCC1): 468 nm
emission maximum (in C1CCOC1): 483 nm
emission maximum (in C1COCCO1): 481 nm
emission maximum (in CC#N): 491 nm
emission maximum (in CCCCCCC): 467 nm
emission maximum (in CCO): 493 nm
emission maximum (in CN(C)C=O): 492 nm
emission maximum (in CO): 496 nm
emission maximum (in O): 485 nm
emission maximum (in OCCO): 500 nm
SMILES: Cc1nn(-c2ccccc2)c(C2=NN(c3ccc(Br)cc3)[C@@H](c3ccccc3)[C@@H]2c2ccccc2)c1C#N

emission maximum (in ClCCl): 370 nm
SMILES: CC1(C)c2ccccc2-c2cc3c(cc21)c1ccccc1n3-c1ccncc1

emission maximum (in ClCCl): 440 nm
SMILES: C1=Cc2ccc(N(c3ccccc3)c3ccccc3)cc2Cc2cc(N(c3ccccc3)c3ccccc3)ccc21

emission maximum (in CCOC(C)=O): 476 nm
SMILES: CCn1ncc2c3c(C#N)c4c5ccccc5n(CC)c4nc3ccc21

emission maximum (in ClC(Cl)Cl): 488 nm
SMILES: CC(C)c1cccc(C(C)C)c1-n1c(=O)c2cc3nc(-c4ccccc4)c4cc5c(=O)n(-c6c(C(C)C)cccc6C(C)C)c(=O)c6cc7c(-c8ccccc8)nc8cc(c1=O)c2c1c3c4c(c56)c7c81

emission maximum (in C1COCCO1): 540 nm
emission maximum (in CC#N): 650 nm
emission maximum (in ClCCl): 627 nm
SMILES: CCCCN(CCCC)c1ccc(/C=C/c2ccc3nc(-c4ccccc4)c(/C=C/c4ccc(N(C)C)cc4)nc3c2)cc1

emission maximum (in ClCCl): 438 nm
SMILES: CC1(C)c2ccccc2-c2cc3c(cc21)c1ccccc1n3-c1ccc2ccccc2n1

emission maximum (in ClCCl): 808 nm
SMILES: Cc1ccc([N+]2=c3c4n(c5ccccc35)[B-](F)(F)[N+](c3ccc(C)cc3)=c3c=4n(c4ccccc34)[B-]2(F)F)cc1

emission maximum (in ClCCl): 478 nm
SMILES: CCN(CC)c1ccc2cc(-c3ccc(-c4ccc(-c5cc6ccccc6oc5=O)cc4)cc3)c(=O)oc2c1

emission maximum (in ClCCl): 500 nm
SMILES: COc1ccc2c(c1)CCC1=C(C#Cc3cc4ccccc4c4ccccc34)O[B-](F)(F)[O+]=C12

emission maximum (in ClC(Cl)Cl): 732 nm
SMILES: COc1ccc(C2=[N+]3C(=Nc4c(-c5ccccc5)c5c(n4[B-]3(F)F)-c3ccc(OC)cc3CC5)C(c3ccccc3)=C2)cc1

emission maximum (in ClC(Cl)Cl): 461 nm
SMILES: COc1ccc(C2=Cc3c4ccccc4c4ccccc4[n+]3[B-](F)(F)O2)cc1

emission maximum (in ClCCl): 589 nm
SMILES: O=c1c2cccc3cccc(c32)c2nc3c4ccccc4c4ccccc4c3n12

— the Deep4Chem optical property database
